# From PubChem BioAssay (NCI)
# “And” between values parts separate entries of the source, which are not always exact repeats. Equal entries are not always repeated.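 Values below derive from 48-hour exposures of cells grown in 96-well plates, with endpoints linearly interpolated between the two concentrations bracketing the appropriate inhibition level. At the GI50, growth is halved. At the TGI there is no net growth.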
# Columns and labels:
# Assay in all cases: DTP human tumour cell line panel, 48 h
# SN12C renal = tested on: SN12C renal
# EKVX NSCLC = tested on: EKVX NSCLC
# UACC-257 melanoma = tested on: UACC-257 melanoma
# M14 melanoma = tested on: M14 melanoma
# 786-0 renal = tested on: 786-0 renal
# HCT-116 colon = tested on: HCT-116 colon
# SF-539 CNS = tested on: SF-539 CNS
# HOP-62 NSCLC = tested on: HOP-62 NSCLC
# PC-3 prostate = tested on: PC-3 prostate
# NCI/ADR-RES ovarian = tested on: NCI/ADR-RES ovarian
SMILES,TGI (SN12C renal),TGI (EKVX NSCLC),TGI (UACC-257 melanoma),TGI (M14 melanoma),TGI (786-0 renal),TGI (HCT-116 colon),TGI (SF-539 CNS),TGI (HOP-62 NSCLC),TGI (PC-3 prostate),TGI (NCI/ADR-RES ovarian),GI50 (PC-3 prostate),GI50 (SN12C renal),GI50 (EKVX NSCLC),GI50 (M14 melanoma),GI50 (786-0 renal),GI50 (HCT-116 colon),GI50 (NCI/ADR-RES ovarian),GI50 (HOP-62 NSCLC),GI50 (SF-539 CNS),GI50 (UACC-257 melanoma)
COc1cc(Cl)c2c3c(c(C(C)=O)oc13)CCC2,> 100 µM,> 100 µM,> 100 µM,> 100 µM,> 100 µM,> 100 µM,> 100 µM,> 100 µM,–,–,–,–,–,–,–,–,–,–,–,–
COc1cc(/C=C(\C#N)C(=O)c2ccccc2)ccc1OCc1ccccc1,> 100 µM,> 100 µM,> 100 µM,> 100 µM,> 100 µM,> 100 µM,> 100 µM,> 100 µM,–,–,–,–,–,–,–,–,–,–,–,–
CN1CCN(CCCN)CC1,> 100 µM,> 100 µM,> 100 µM,> 100 µM,> 100 µM,> 100 µM,–,> 100 µM,> 100 µM,> 100 µM,–,–,–,–,–,–,–,–,–,–
Cc1cc(C)c([O-])c(CN(C)CCN(C)Cc2cc(C)cc(C)c2[O-])c1.O=C([O-])c1cccc(C(=O)[O-])n1.[Ti+4],> 100 µM,> 100 µM,–,> 100 µM,> 100 µM,22.3 µM,–,8.47 µM,> 100 µM,> 100 µM,2.7 µM,3.69 µM,3.4 µM,1.7 µM,1.83 µM,0.383 µM,2.71 µM,2.92 µM,–,–
CC(=O)c1cccc(N2COC(C)(C)c3nc4ccccc4n3C2)c1,> 100 µM,> 100 µM,> 100 µM,> 100 µM,> 100 µM,> 100 µM,> 100 µM,> 100 µM,–,–,–,–,–,–,–,–,–,–,–,–
Cc1c(NC(=O)C(C)(C)Br)c(=O)oc2c(C)c3occc(=O)c3cc12,> 100 µM,> 100 µM,> 100 µM,> 100 µM,> 100 µM,> 100 µM,> 100 µM,> 100 µM,–,–,–,–,–,–,–,–,–,–,–,–
COc1cc(C(=O)/C(C)=C/c2c[nH]c3ccccc23)cc(OC)c1OC,> 100 µM,> 100 µM,–,1.89 µM,> 100 µM,> 100 µM,0.0129 µM,11.9 µM,> 100 µM,> 100 µM,0.00789 µM,–,0.0053 µM,0.00338 µM,0.00639 µM,0.00359 µM,0.00322 µM,0.00541 µM,0.0028 µM,–
CCCCCCCCC[C@@H]1CC(=O)OCC2OC(O[C@H](CCCCCCCCC)CC(=O)OCC3OC(O[C@H](CCCCCCCCC)CC(=O)OCC4OC(O1)C(O)C(O)C4O)C(O)C(O)C3O)C(O)C(O)C2O (some centres undefined),28 µM,25.1 µM,24.2 µM,10.2 µM,16.2 µM,21.9 µM,23.2 µM,26.1 µM,–,–,–,–,–,–,–,–,–,–,–,–
COc1cc(OC)c(/C=C/S(=O)(=O)Cc2cnc(OC)c(N)c2)c(OC)c1,> 100 µM,> 100 µM,> 100 µM,> 100 µM,> 100 µM,> 100 µM,–,> 100 µM,> 100 µM,> 100 µM,< 0.0187 µM,< 0.0232 µM,0.223 µM,< 0.0173 µM,< 0.031 µM,< 0.0209 µM,< 0.01 µM,< 0.0185 µM,–,> 62 µM
CCNC(=O)CCN(C(=O)O)S(=O)(=O)c1ccc(NC(=O)c2ccccc2)cc1,> 100 µM,> 100 µM,> 100 µM,> 100 µM,28.3 µM,> 100 µM,> 100 µM,> 100 µM,–,–,–,–,–,–,–,–,–,–,–,–
CC/C(C)=C1\CCC(CN2CCOCC2)C1=O (centres undefined),21.7 µM,34 µM,31.5 µM,31.4 µM,22.9 µM,26.8 µM,35 µM,40.2 µM,–,–,–,–,–,–,–,–,–,–,–,–
CC1C[C@@]2(c3ccccc3)C(=O)CCC[C@H]2N1 (some centres undefined),> 100 µM,> 100 µM,> 100 µM,> 100 µM,> 100 µM,> 100 µM,> 100 µM,> 100 µM,–,–,–,–,–,–,–,–,–,–,–,–
CC1=C(C(=O)Nc2ccccc2C)C(c2ccc(Cl)c(Cl)c2)C(C(=O)Nc2ccccc2C)=C(C)N1,47.2 µM,> 100 µM,50.7 µM,35.3 µM,67.3 µM,45.2 µM,49.6 µM,66.5 µM,–,–,–,–,–,–,–,–,–,–,–,–
O=C1OC(CC(=O)c2ccc(Cl)c(Cl)c2)C(Cl)=C1Cl (centres undefined),> 100 µM,> 100 µM,> 100 µM,> 100 µM,> 100 µM,–,> 100 µM,> 100 µM,–,–,–,–,–,–,–,–,–,–,–,–
CC(=O)[O-].CC(=O)[O-].[Pt+2].c1cscn1.c1cscn1,> 100 µM,–,85.3 µM,> 100 µM,> 100 µM,> 100 µM,> 100 µM,> 100 µM,> 100 µM,> 100 µM,> 100 µM,> 100 µM,–,> 100 µM,> 100 µM,53.9 µM,> 100 µM,> 100 µM,48.3 µM,31.9 µM
O=C(/C=C/c1ccc([N+](=O)[O-])o1)N1CCN(Cc2ccccc2)CC1,21.3 µM,38.2 µM,20.8 µM,16.7 µM,26.1 µM,22.7 µM,19.4 µM,34.6 µM,–,–,–,–,–,–,–,–,–,–,–,–
Cc1c[nH]c2c(O)cc3c(c12)[C@H](CCl)CN3C(=O)c1cc2cc(NC(=O)Nc3ccc4[nH]c(C(=O)N5C[C@@H](CCl)c6c5cc(O)c5[nH]cc(C)c65)cc4c3)ccc2[nH]1,–,7.21 nM and > 100 µM and 9.5e-07 µg/mL,42.4 µM and 0.00318 µg/mL,–,–,–,–,18.9 µM and 8.9e-07 µg/mL and 0.000888 µg/mL,–,–,0.023 µM,–,–,0.00359 µM,0.000203 µM,0.0031 µM,–,–,–,1.27 ng/mL
COC(=O)C1C(C(=O)OC)C2(OC)c3ccccc3-c3ccccc3C12 (centres undefined),> 100 µM,> 100 µM,> 100 µM,> 100 µM,> 100 µM,> 100 µM,> 100 µM,> 100 µM,–,–,–,–,–,–,–,–,–,–,–,–
O=S(=O)(N/N=C/c1ccc(/C=N/NS(=O)(=O)c2ccccc2)cc1)c1ccccc1,> 100 µM,> 100 µM,> 100 µM,> 100 µM,> 100 µM,> 100 µM,93.3 µM,> 100 µM,–,–,–,–,–,–,–,–,–,–,–,–
